{"source": "patent US8957276B2", "about": "(priority 2009, dated 2015)", "origin": "cited, not measured here"}
{"system": "Human", "conditions": "in vivo, po", "units": {"Acute toxicity (LD50)": "mg/kg"}}
{"smiles": "[Hg]", "note": "[Hg, metallic mercury]", "Acute toxicity (LD50)": 43}
{"system": "Rat", "conditions": "in vivo, po", "units": {"Acute toxicity (LD50)": "mg/kg"}}
{"smiles": "[CH3][Hg][CH3]", "note": "[(CH3)2Hg]", "Acute toxicity (LD50)": 26}
{"smiles": "[Cl][Hg].[Cl][Hg]", "note": "[Hg2Cl2]", "Acute toxicity (LD50)": 210}
{"smiles": "[Cl][Hg][Cl]", "note": "[HgCl2, mercury chloride (II)]", "Acute toxicity (LD50)": 1}
{"smiles": "[Cl][Hg]", "note": "[HgCl]", "Acute toxicity (LD50)": 210}
{"smiles": "[O]=[Hg]", "note": "[HgO, mercury oxide]", "Acute toxicity (LD50)": 18}
